According to ChEMBL document CHEMBL1150612, “Naturally occurring cembranes from an Australian sarcophyton species” (J Nat Prod, 2002):
Calls of active or inactive are those of the source. No cut-off for these calls is given here.

Tests used:
[1] = molecular target: T1, Adenosine receptor A1 (Rattus norvegicus, UniProt P25099); test: Displacement of [3H]DPCPX from rat brain adenosine A1 receptor
T1 sequence (P25099 whole entry): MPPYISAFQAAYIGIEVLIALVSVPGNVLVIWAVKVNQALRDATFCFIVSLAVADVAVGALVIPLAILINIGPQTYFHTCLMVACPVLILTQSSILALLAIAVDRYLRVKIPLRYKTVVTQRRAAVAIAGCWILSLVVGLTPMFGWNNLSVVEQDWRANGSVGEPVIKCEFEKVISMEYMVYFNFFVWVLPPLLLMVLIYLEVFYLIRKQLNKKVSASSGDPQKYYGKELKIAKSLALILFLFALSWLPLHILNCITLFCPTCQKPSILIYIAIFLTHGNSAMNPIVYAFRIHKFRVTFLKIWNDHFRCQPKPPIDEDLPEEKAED

[2] = molecular target: T2, Adenosine receptor A1 (Rattus norvegicus) (UniProt P25099); test: Displacement of [3H]DPCPX from rat brain adenosine A1 receptor up to […]
T2 sequence (whole entry): T1 sequence (P25099 whole entry)

SMILES | IC50 [1] | Activity [2]
CC(C)[C@H]1/C=C/[C@](C)(O)C/C=C/[C@](C)(O)CC[C@@H]2O[C@@]2(C)CC1 | 300 µM | 
C=C1CC[C@@H]2O[C@@]2(C)CC[C@@H](C(C)C)/C=C/[C@](C)(O)CC[C@H]1O |  | inactive
CC(C)[C@H]1/C=C/[C@](C)(O)C/C=C/[C@@](C)(O)CC[C@@H]2O[C@@]2(C)CC1 | 300 µM | 
C=C1CC[C@@H]2O[C@@]2(C)CC[C@@H](C(C)C)/C=C/[C@](C)(O)CC[C@@H]1O |  | inactive
